Results published in the NIST ThermoML archive (doi:10.1021/je060271a).
± gives the expanded uncertainty stated by the source.

Details: 303.14 K, Liquid, Vibrating tube method

With `CCCCCCC(=O)OCC(COC(=O)CCCCCC)(COC(=O)CCCCCC)COC(=O)CCCCCC` [pentaerythritol tetraheptanoate] as the molecule, how does the mass density (12083 kPa) read?
Its mass density is 978.2 ± 1.2 kg/m3.

What about the mass density (12110 kPa) of the same molecule?
Its mass density is 978.1 ± 1.2 kg/m3.

And the mass density (12130 kPa)?
Its mass density is 978.2 ± 1.2 kg/m3.

And the mass density (12151 kPa)?
The mass density was 978.2 ± 1.2 kg/m3.

And the mass density (12176 kPa)?
The mass density was 978.3 ± 1.2 kg/m3.

And the mass density (12197 kPa)?
Its mass density is 978.3 ± 1.2 kg/m3.

What about the mass density (12218 kPa) of the same molecule?
Its mass density is 978.2 ± 1.2 kg/m3.

What about the mass density (12240 kPa) of the same molecule?
Its mass density is 978.3 ± 1.2 kg/m3.

And the mass density (12266 kPa)?
The mass density was 978.3 ± 1.2 kg/m3.

What about the mass density (12285 kPa) of the same molecule?
The mass density was 978.3 ± 1.2 kg/m3.

And the mass density (12300 kPa)?
Its mass density is 978.3 ± 1.2 kg/m3.

What about the mass density (12304 kPa) of the same molecule?
The mass density was 978.3 ± 1.2 kg/m3.

What about the mass density (12305 kPa) of the same molecule?
The mass density was 978.4 ± 1.2 kg/m3.

What about the mass density (12331 kPa) of the same molecule?
The mass density was 978.3 ± 1.2 kg/m3.

What about the mass density (12497 kPa) of the same molecule?
The mass density was 978.4 ± 1.2 kg/m3.

What about the mass density (12525 kPa) of the same molecule?
Its mass density is 978.5 ± 1.2 kg/m3.

What about the mass density (12546 kPa) of the same molecule?
Its mass density is 978.5 ± 1.2 kg/m3.

What about the mass density (12565 kPa) of the same molecule?
The mass density was 978.5 ± 1.2 kg/m3.

And the mass density (12583 kPa)?
Its mass density is 978.5 ± 1.2 kg/m3.

And the mass density (12606 kPa)?
The mass density was 978.4 ± 1.2 kg/m3.

And the mass density (12624 kPa)?
Its mass density is 978.5 ± 1.2 kg/m3.

What about the mass density (12646 kPa) of the same molecule?
The mass density was 978.5 ± 1.2 kg/m3.

And the mass density (12665 kPa)?
Its mass density is 978.5 ± 1.2 kg/m3.

What about the mass density (12684 kPa) of the same molecule?
Its mass density is 978.4 ± 1.2 kg/m3.

And the mass density (12707 kPa)?
The mass density was 978.5 ± 1.2 kg/m3.

And the mass density (12725 kPa)?
The mass density was 978.6 ± 1.2 kg/m3.

And the mass density (12748 kPa)?
The mass density was 978.5 ± 1.2 kg/m3.

What about the mass density (12768 kPa) of the same molecule?
The mass density was 978.7 ± 1.2 kg/m3.

And the mass density (12787 kPa)?
The mass density was 978.5 ± 1.2 kg/m3.

What about the mass density (12806 kPa) of the same molecule?
The mass density was 978.5 ± 1.2 kg/m3.

And the mass density (12829 kPa)?
The mass density was 978.6 ± 1.2 kg/m3.

What about the mass density (12849 kPa) of the same molecule?
The mass density was 978.6 ± 1.2 kg/m3.

And the mass density (12868 kPa)?
Its mass density is 978.8 ± 1.2 kg/m3.

And the mass density (12887 kPa)?
The mass density was 978.6 ± 1.2 kg/m3.

What about the mass density (12911 kPa) of the same molecule?
The mass density was 978.6 ± 1.2 kg/m3.

What about the mass density (12930 kPa) of the same molecule?
The mass density was 978.7 ± 1.2 kg/m3.

And the mass density (12950 kPa)?
The mass density was 978.7 ± 1.2 kg/m3.

What about the mass density (12974 kPa) of the same molecule?
Its mass density is 978.7 ± 1.2 kg/m3.

What about the mass density (12993 kPa) of the same molecule?
The mass density was 978.7 ± 1.2 kg/m3.

What about the mass density (13017 kPa) of the same molecule?
Its mass density is 978.8 ± 1.2 kg/m3.

And the mass density (13037 kPa)?
Its mass density is 978.7 ± 1.2 kg/m3.

What about the mass density (13057 kPa) of the same molecule?
The mass density was 978.8 ± 1.2 kg/m3.

And the mass density (13081 kPa)?
The mass density was 978.8 ± 1.2 kg/m3.

What about the mass density (13101 kPa) of the same molecule?
Its mass density is 978.8 ± 1.2 kg/m3.

What about the mass density (13145 kPa) of the same molecule?
The mass density was 978.7 ± 1.2 kg/m3.

What about the mass density (13166 kPa) of the same molecule?
The mass density was 978.8 ± 1.2 kg/m3.

What about the mass density (13186 kPa) of the same molecule?
The mass density was 978.9 ± 1.2 kg/m3.

What about the mass density (13211 kPa) of the same molecule?
Its mass density is 978.9 ± 1.2 kg/m3.

What about the mass density (13231 kPa) of the same molecule?
Its mass density is 978.9 ± 1.2 kg/m3.

And the mass density (13252 kPa)?
Its mass density is 978.8 ± 1.2 kg/m3.

And the mass density (13277 kPa)?
The mass density was 978.9 ± 1.2 kg/m3.

What about the mass density (13298 kPa) of the same molecule?
The mass density was 978.9 ± 1.2 kg/m3.

What about the mass density (13319 kPa) of the same molecule?
Its mass density is 978.9 ± 1.2 kg/m3.

And the mass density (13340 kPa)?
The mass density was 978.9 ± 1.2 kg/m3.

What about the mass density (13366 kPa) of the same molecule?
Its mass density is 979 ± 1.2 kg/m3.

And the mass density (13387 kPa)?
The mass density was 978.9 ± 1.2 kg/m3.

And the mass density (13408 kPa)?
The mass density was 978.9 ± 1.2 kg/m3.

What about the mass density (13429 kPa) of the same molecule?
Its mass density is 979.1 ± 1.2 kg/m3.

What about the mass density (13454 kPa) of the same molecule?
The mass density was 979 ± 1.2 kg/m3.

What about the mass density (13476 kPa) of the same molecule?
Its mass density is 979 ± 1.2 kg/m3.

And the mass density (13501 kPa)?
The mass density was 979 ± 1.2 kg/m3.

What about the mass density (13523 kPa) of the same molecule?
Its mass density is 979.1 ± 1.2 kg/m3.

And the mass density (13544 kPa)?
The mass density was 979.1 ± 1.2 kg/m3.

What about the mass density (13592 kPa) of the same molecule?
Its mass density is 979 ± 1.2 kg/m3.

What about the mass density (13615 kPa) of the same molecule?
The mass density was 979 ± 1.2 kg/m3.

And the mass density (13637 kPa)?
Its mass density is 979.1 ± 1.2 kg/m3.

What about the mass density (13660 kPa) of the same molecule?
Its mass density is 979.1 ± 1.2 kg/m3.

And the mass density (13686 kPa)?
The mass density was 979.2 ± 1.2 kg/m3.

What about the mass density (13708 kPa) of the same molecule?
Its mass density is 979.1 ± 1.2 kg/m3.

What about the mass density (13730 kPa) of the same molecule?
The mass density was 979.1 ± 1.2 kg/m3.

And the mass density (13757 kPa)?
Its mass density is 979.1 ± 1.2 kg/m3.

And the mass density (13779 kPa)?
The mass density was 979.3 ± 1.2 kg/m3.

What about the mass density (13802 kPa) of the same molecule?
The mass density was 979.2 ± 1.2 kg/m3.

What about the mass density (13828 kPa) of the same molecule?
Its mass density is 979.3 ± 1.2 kg/m3.

What about the mass density (13851 kPa) of the same molecule?
The mass density was 979.2 ± 1.2 kg/m3.

What about the mass density (13949 kPa) of the same molecule?
The mass density was 979.3 ± 1.2 kg/m3.

What about the mass density (13996 kPa) of the same molecule?
The mass density was 979.4 ± 1.2 kg/m3.

What about the mass density (14023 kPa) of the same molecule?
The mass density was 979.3 ± 1.2 kg/m3.

What about the mass density (14047 kPa) of the same molecule?
Its mass density is 979.3 ± 1.2 kg/m3.

And the mass density (14070 kPa)?
Its mass density is 979.5 ± 1.2 kg/m3.

And the mass density (14098 kPa)?
Its mass density is 979.3 ± 1.2 kg/m3.

What about the mass density (14121 kPa) of the same molecule?
The mass density was 979.4 ± 1.2 kg/m3.

And the mass density (14145 kPa)?
Its mass density is 979.5 ± 1.2 kg/m3.

What about the mass density (14174 kPa) of the same molecule?
Its mass density is 979.4 ± 1.2 kg/m3.

And the mass density (14198 kPa)?
Its mass density is 979.4 ± 1.2 kg/m3.

And the mass density (14247 kPa)?
The mass density was 979.4 ± 1.2 kg/m3.

What about the mass density (14276 kPa) of the same molecule?
Its mass density is 979.4 ± 1.2 kg/m3.

What about the mass density (14300 kPa) of the same molecule?
The mass density was 979.4 ± 1.2 kg/m3.

And the mass density (14353 kPa)?
The mass density was 979.5 ± 1.2 kg/m3.

What about the mass density (14378 kPa) of the same molecule?
The mass density was 979.5 ± 1.2 kg/m3.

What about the mass density (14402 kPa) of the same molecule?
Its mass density is 979.5 ± 1.2 kg/m3.

What about the mass density (14432 kPa) of the same molecule?
The mass density was 979.5 ± 1.2 kg/m3.

And the mass density (14700 kPa)?
Its mass density is 979.8 ± 1.2 kg/m3.

And the mass density (14725 kPa)?
Its mass density is 979.9 ± 1.2 kg/m3.

What about the mass density (14756 kPa) of the same molecule?
Its mass density is 979.8 ± 1.2 kg/m3.

What about the mass density (14782 kPa) of the same molecule?
Its mass density is 979.7 ± 1.2 kg/m3.

And the mass density (14808 kPa)?
Its mass density is 979.7 ± 1.2 kg/m3.

And the mass density (15038 kPa)?
The mass density was 979.8 ± 1.2 kg/m3.

What about the mass density (15065 kPa) of the same molecule?
Its mass density is 980.1 ± 1.2 kg/m3.

And the mass density (15092 kPa)?
Its mass density is 980 ± 1.2 kg/m3.

And the mass density (15119 kPa)?
The mass density was 979.9 ± 1.2 kg/m3.

What about the mass density (15152 kPa) of the same molecule?
Its mass density is 980.1 ± 1.2 kg/m3.

And the mass density (15207 kPa)?
The mass density was 980 ± 1.2 kg/m3.

What about the mass density (15241 kPa) of the same molecule?
The mass density was 980 ± 1.2 kg/m3.

What about the mass density (15297 kPa) of the same molecule?
Its mass density is 980 ± 1.2 kg/m3.

What about the mass density (15386 kPa) of the same molecule?
The mass density was 980.1 ± 1.2 kg/m3.

And the mass density (15420 kPa)?
Its mass density is 980.1 ± 1.2 kg/m3.

And the mass density (15448 kPa)?
Its mass density is 980.2 ± 1.2 kg/m3.

What about the mass density (15477 kPa) of the same molecule?
The mass density was 980.2 ± 1.2 kg/m3.

And the mass density (15539 kPa)?
The mass density was 980.1 ± 1.2 kg/m3.

And the mass density (15568 kPa)?
Its mass density is 980.2 ± 1.2 kg/m3.

And the mass density (15602 kPa)?
The mass density was 980.2 ± 1.2 kg/m3.
